# In US20240109865A1, “INDAZOLE COMPOUNDS AS KINASE INHIBITORS” (TYRA BIOSCIENCES, INC., priority 2020, published 2024):
# Columns and labels:
# [1] = target: FGFR3-BAIAP2L1 Ba/F3 cells (Homo sapiens, UniProt P22607); assay: Ba/F3 cell viability assay (CellTiter-Glo 2.0), FGFR3-BAIAP2L1 Ba/F3; assay type: cell-based; conditions: for Ba/F3 FGFR1/FGFR3 Selectivity: FGFR3 > FGFR1 selectivity ratio in Ba/F3 FGFR fusion cell based assays; for IC50: read-out: Ba/F3 Cells FGFR3 (IC50 nM), FGFR3-BAIAP2L1 Ba/F3 cells, 48 hours, Cell Titer Glo 2.0
# Chain of FGFR3-BAIAP2L1 Ba/F3 cells (P22607 23-806 limits assumed, change not shown): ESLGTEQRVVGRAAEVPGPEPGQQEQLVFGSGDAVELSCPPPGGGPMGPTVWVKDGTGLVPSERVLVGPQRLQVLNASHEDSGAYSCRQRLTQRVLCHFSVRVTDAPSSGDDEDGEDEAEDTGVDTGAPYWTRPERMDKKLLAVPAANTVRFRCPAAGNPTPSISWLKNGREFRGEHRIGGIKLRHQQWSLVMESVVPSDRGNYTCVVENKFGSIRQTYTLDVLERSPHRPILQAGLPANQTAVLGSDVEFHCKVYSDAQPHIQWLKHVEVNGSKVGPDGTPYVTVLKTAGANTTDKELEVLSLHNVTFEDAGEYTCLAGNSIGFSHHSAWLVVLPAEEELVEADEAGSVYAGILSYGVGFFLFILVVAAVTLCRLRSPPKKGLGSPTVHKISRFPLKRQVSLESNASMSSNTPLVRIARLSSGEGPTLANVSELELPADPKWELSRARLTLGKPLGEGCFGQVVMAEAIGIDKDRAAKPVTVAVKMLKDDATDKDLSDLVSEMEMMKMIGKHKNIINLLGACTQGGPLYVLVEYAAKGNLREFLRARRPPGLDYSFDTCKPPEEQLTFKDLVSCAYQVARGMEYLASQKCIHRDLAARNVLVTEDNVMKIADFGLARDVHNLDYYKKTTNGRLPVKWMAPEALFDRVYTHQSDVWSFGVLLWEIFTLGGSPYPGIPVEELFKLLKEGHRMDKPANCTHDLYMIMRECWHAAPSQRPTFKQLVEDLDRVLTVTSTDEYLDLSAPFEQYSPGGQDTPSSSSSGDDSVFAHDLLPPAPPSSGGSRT
# Procedure, shortened: (§1)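 Viability read as ATP luminescence (CellTiter-Glo 2.0) after 48 h compound exposure, normalized to DMSO-treated cells and fitted with a 4-parameter curve for IC50. Cells: Ba/F3 dependent on FGFR1-BCR or FGFR3-BAIAP2L1 fusion kinase; top dose 30 μM, 10-fold steps, 9 doses in triplicate.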
# [2] = target: FGFR1-BCR Ba/F3 cells (Homo sapiens, UniProt P11362); assay: Ba/F3 cell viability assay (CellTiter-Glo 2.0), FGFR1-BCR Ba/F3; assay type: cell-based; conditions: read-out: Ba/F3 Cells FGFR1 (IC50 nM), 48 hours, Cell Titer Glo 2.0
# Chain of FGFR1-BCR Ba/F3 cells (P11362 22-822 limits assumed, change not shown): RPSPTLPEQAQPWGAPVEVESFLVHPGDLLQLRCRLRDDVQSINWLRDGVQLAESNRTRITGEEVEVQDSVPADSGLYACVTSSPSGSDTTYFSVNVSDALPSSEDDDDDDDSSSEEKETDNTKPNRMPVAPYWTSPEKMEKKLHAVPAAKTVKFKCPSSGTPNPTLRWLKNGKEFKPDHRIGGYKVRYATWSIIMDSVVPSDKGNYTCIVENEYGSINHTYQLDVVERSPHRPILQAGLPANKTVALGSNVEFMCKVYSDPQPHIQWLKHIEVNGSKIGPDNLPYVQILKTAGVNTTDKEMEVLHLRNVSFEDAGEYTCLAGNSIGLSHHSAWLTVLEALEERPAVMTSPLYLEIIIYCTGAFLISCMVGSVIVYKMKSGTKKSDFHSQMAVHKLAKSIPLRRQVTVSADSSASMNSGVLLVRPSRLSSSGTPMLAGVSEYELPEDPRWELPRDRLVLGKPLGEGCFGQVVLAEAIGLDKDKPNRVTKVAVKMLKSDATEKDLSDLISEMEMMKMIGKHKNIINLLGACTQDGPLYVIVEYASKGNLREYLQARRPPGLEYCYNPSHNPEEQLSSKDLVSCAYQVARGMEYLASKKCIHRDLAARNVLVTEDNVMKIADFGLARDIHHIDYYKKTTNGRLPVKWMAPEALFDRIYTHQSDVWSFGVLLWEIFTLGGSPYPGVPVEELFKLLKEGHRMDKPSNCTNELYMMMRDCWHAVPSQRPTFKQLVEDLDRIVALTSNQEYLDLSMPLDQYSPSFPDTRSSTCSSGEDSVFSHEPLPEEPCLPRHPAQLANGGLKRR
# Procedure, shortened: as §1
# [3] = target: FGFR1 (Homo sapiens (Human), UniProt P11362); assay: Kinase assay, binding constants (Kd), kinase-tagged T7 phage, qPCR
# Chain of FGFR1 (P11362 22-822): as the sequence (P11362 22-822 limits assumed, change not shown) above
# Procedure, shortened: (§2)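 Using T7 phage lysates from BL21-derived E. coli, compounds at 0.9% final DMSO competed for kinase binding to ligand-bearing magnetic beads. After elution, qPCR measured remaining kinase, and Kds were fitted by non-linear least squares with the Hill slope fixed at −1.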
# [4] = target: FGFR2 (Homo sapiens (Human), UniProt P21802); assay: as above
# Chain of FGFR2 (P21802 22-821): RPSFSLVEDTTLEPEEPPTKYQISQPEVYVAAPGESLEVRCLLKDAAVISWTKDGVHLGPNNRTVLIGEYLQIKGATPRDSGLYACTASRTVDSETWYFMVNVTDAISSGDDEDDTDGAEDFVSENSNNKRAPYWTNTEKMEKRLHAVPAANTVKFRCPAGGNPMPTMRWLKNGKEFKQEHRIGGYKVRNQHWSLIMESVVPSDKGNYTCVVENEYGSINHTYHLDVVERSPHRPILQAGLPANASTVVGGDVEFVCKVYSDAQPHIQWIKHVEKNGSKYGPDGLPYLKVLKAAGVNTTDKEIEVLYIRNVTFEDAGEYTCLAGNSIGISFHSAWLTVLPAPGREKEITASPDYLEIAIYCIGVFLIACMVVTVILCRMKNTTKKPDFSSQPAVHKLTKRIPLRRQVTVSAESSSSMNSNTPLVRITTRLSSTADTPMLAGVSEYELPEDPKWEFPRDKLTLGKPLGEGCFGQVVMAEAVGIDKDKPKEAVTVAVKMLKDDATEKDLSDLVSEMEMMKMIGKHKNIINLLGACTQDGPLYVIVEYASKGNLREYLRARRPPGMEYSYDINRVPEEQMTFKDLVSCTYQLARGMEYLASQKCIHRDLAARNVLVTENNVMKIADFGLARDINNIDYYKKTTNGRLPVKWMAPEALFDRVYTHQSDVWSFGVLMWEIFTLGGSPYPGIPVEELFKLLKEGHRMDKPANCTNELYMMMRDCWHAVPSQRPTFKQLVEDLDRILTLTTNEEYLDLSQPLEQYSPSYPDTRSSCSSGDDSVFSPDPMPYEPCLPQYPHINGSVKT
# Procedure, shortened: as §2
# [5] = target: FGFR3 (Homo sapiens (Human), UniProt P22607); assay: as above
# Chain of FGFR3 (P22607 23-806): as the sequence (P22607 23-806 limits assumed, change not shown) above
# Procedure, shortened: as §2
# [6] = target: FGFR3 (V555M) (Homo sapiens (Human), UniProt P22607, V555M); assay: as above; conditions: V555M mutant
# Chain of FGFR3 (V555M) (P22607 23-806 V555M): as the sequence (P22607 23-806 limits assumed, change not shown) above, with V533M counted along it
# Procedure, shortened: as §2
# [7] = target: FGFR4 (Homo sapiens (Human), UniProt P22455); assay: as above
# Chain of FGFR4 (P22455 22-802): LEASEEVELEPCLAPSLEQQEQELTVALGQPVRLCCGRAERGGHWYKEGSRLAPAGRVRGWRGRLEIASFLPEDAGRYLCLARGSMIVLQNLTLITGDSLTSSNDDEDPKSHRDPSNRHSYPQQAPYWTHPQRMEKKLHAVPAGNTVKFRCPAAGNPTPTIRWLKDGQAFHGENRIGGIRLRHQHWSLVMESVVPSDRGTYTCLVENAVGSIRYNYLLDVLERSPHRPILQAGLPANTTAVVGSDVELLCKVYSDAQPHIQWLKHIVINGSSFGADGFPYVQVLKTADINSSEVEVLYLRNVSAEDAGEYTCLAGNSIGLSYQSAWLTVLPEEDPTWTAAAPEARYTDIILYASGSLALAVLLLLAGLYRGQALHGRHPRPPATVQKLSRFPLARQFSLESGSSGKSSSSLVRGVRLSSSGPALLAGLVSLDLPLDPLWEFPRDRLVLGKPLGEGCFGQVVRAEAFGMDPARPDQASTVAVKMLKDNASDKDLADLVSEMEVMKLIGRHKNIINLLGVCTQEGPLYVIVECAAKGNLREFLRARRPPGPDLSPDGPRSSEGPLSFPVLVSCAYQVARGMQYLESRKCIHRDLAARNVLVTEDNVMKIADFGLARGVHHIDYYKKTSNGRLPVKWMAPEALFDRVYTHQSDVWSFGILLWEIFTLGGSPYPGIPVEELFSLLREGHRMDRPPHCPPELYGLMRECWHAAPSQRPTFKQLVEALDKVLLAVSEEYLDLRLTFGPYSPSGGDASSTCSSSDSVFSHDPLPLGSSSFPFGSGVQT
# Procedure, shortened: as §2
compound,measurement,setting,value
"CCS(=O)(=O)N1CC2(CN(c3ncc(-c4n[nH]c5ccc(O[C@H](C)c6c(Cl)cncc6Cl)cc45)cn3)C2)C1 [Example 128, 5-[(1R)-1-(3,5-dichloro-4-pyridyl)ethoxy]-3-[2-(2-ethylsulfonyl-2,6-diazaspiro[3.3]heptan-6-yl)pyrimidin-5-yl]-1H-indazole]",Ba/F3 FGFR1/FGFR3 Selectivity,[1],8
same,IC50,[1],20 to 100 nM
same,IC50,[2],> 300 nM
same,Kd,[3],20 to 100 nM
same,Kd,[4],20 to 100 nM
same,Kd,[5],1 to 20 nM
same,Kd,[6],1 to 20 nM
same,Kd,[7],1 to 20 nM
"C[C@@H](Oc1ccc2[nH]nc(-c3cnc(N4CC5(CCCS(=O)(=O)C5)C4)nc3)c2c1)c1c(Cl)cncc1Cl [Example 129, 2-[5-[5-[(1R)-1-(3,5-dichloro-4-pyridyl)ethoxy]-1H-indazol-3-yl]pyrimidin-2-yl]-6λ^6-thia-2-azaspiro[3.5]nonane 6,6-dioxide]",Ba/F3 FGFR1/FGFR3 Selectivity,[1],6
same,IC50,[1],20 to 100 nM
same,IC50,[2],100 to 300 nM
same,Kd,[3],20 to 100 nM
same,Kd,[4],20 to 100 nM
same,Kd,[5],1 to 20 nM
same,Kd,[6],1 to 20 nM
same,Kd,[7],1 to 20 nM
"CCOC(=O)N1CCC2(CC1)CN(c1ccc(-c3n[nH]c4ccc(O[C@H](C)c5c(Cl)cncc5Cl)cc34)cn1)C2 [Example 130, ethyl 2-[5-[5-[(1R)-1-(3,5-dichloro-4-pyridyl)ethoxy]-1H-indazol-3-yl]-2-pyridyl]-2,7-diazaspiro[3.5]nonane-7-carboxylate]",Ba/F3 FGFR1/FGFR3 Selectivity,[1],12
same,IC50,[1],20 to 100 nM
same,IC50,[2],> 300 nM
same,Kd,[3],20 to 100 nM
same,Kd,[4],20 to 100 nM
same,Kd,[5],1 to 20 nM
same,Kd,[6],1 to 20 nM
same,Kd,[7],1 to 20 nM
"CCOC(=O)N1CCCC2(C1)CN(c1ncc(-c3n[nH]c4ccc(O[C@H](C)c5c(Cl)cncc5Cl)cc34)cn1)C2 [Example 131, ethyl 2-[5-[5-[(1R)-1-(3,5-dichloro-4-pyridyl)ethoxy]-1H-indazol-3-yl]pyrimidin-2-yl]-2,8-diazaspiro[3.5]nonane-8-carboxylate]",Ba/F3 FGFR1/FGFR3 Selectivity,[1],5
same,IC50,[1],100 to 300 nM
same,IC50,[2],> 300 nM
same,Kd,[3],100 to 300 nM
same,Kd,[4],100 to 300 nM
same,Kd,[5],1 to 20 nM
same,Kd,[6],1 to 20 nM
same,Kd,[7],1 to 20 nM
"CC(C)OC(=O)N1CCCC2(C1)CN(c1ncc(-c3n[nH]c4ccc(O[C@H](C)c5c(Cl)cncc5Cl)cc34)cn1)C2 [Example 135, isopropyl 2-[5-[5-[(1R)-1-(3,5-dichloro-4-pyridyl)ethoxy]-1H-indazol-3-yl]pyrimidin-2-yl]-2,8-diazaspiro[3.5]nonane-8-carboxylate]",Ba/F3 FGFR1/FGFR3 Selectivity,[1],9
same,IC50,[1],100 to 300 nM
same,IC50,[2],> 300 nM
same,Kd,[3],> 300 nM
same,Kd,[4],> 300 nM
same,Kd,[5],20 to 100 nM
same,Kd,[6],1 to 20 nM
same,Kd,[7],1 to 20 nM
"COC(=O)N1CCC2(CC1)CN(c1ncc(-c3n[nH]c4ccc(O[C@H](C)c5c(Cl)cncc5Cl)cc34)cn1)C2 [Example 136, methyl 2-[5-[5-[(1R)-1-(3,5-dichloro-4-pyridyl)ethoxy]-1H-indazol-3-yl]pyrimidin-2-yl]-2,7-diazaspiro[3.5]nonane-7-carboxylate]",Ba/F3 FGFR1/FGFR3 Selectivity,[1],6
same,IC50,[1],20 to 100 nM
same,IC50,[2],> 300 nM
same,Kd,[3],20 to 100 nM
same,Kd,[4],1 to 20 nM
same,Kd,[5],1 to 20 nM
same,Kd,[6],1 to 20 nM
same,Kd,[7],1 to 20 nM
"C[C@@H](Oc1ccc2[nH]nc(-c3cnc(N4CC5(CCN(S(C)(=O)=O)CC5)C4)nc3)c2c1)c1c(Cl)cncc1Cl [Example 137, 5-[(1R)-1-(3,5-dichloro-4-pyridyl)ethoxy]-3-[2-(7-methylsulfonyl-2,7-diazaspiro[3.5]nonan-2-yl)pyrimidin-5-yl]-1H-indazole]",Ba/F3 FGFR1/FGFR3 Selectivity,[1],11
same,IC50,[1],1 to 20 nM
same,IC50,[2],100 to 300 nM
same,Kd,[3],20 to 100 nM
same,Kd,[4],20 to 100 nM
same,Kd,[5],1 to 20 nM
same,Kd,[6],1 to 20 nM
same,Kd,[7],1 to 20 nM
"COC(=O)N1CCCC2(C1)CN(c1ncc(-c3n[nH]c4ccc(O[C@H](C)c5c(Cl)cncc5Cl)cc34)cn1)C2 [Example 138, methyl 2-[5-[5-[(1R)-1-(3,5-dichloro-4-pyridyl)ethoxy]-1H-indazol-3-yl]pyrimidin-2-yl]-2,8-diazaspiro[3.5]nonane-8-carboxylate]",Ba/F3 FGFR1/FGFR3 Selectivity,[1],8
same,IC50,[1],20 to 100 nM
same,IC50,[2],> 300 nM
same,Kd,[3],20 to 100 nM
same,Kd,[4],20 to 100 nM
same,Kd,[5],1 to 20 nM
same,Kd,[6],1 to 20 nM
same,Kd,[7],1 to 20 nM
"Cc1cncc(C)c1[C@H](C)Oc1ccc2[nH]nc(-c3ccc(N4CC5(C4)CN(S(C)(=O)=O)C5)nc3)c2c1 [Example 140, 5-[(1S)-1-(3,5-dimethyl-4-pyridyl)ethoxy]-3-[6-(2-methylsulfonyl-2,6-diazaspiro[3.3]heptan-6-yl)-3-pyridyl]-1H-indazole]",Ba/F3 FGFR1/FGFR3 Selectivity,[1],19
same,IC50,[1],100 to 300 nM
same,IC50,[2],> 300 nM
same,Kd,[3],> 300 nM
same,Kd,[4],> 300 nM
same,Kd,[5],20 to 100 nM
same,Kd,[6],1 to 20 nM
same,Kd,[7],> 300 nM
"Cc1cnnc(C)c1[C@@H](C)Oc1ccc2[nH]nc(-c3cnc(N4CC5(CCS(=O)(=O)C5)C4)nc3)c2c1 [Example 141, 2-[5-[5-[(1R)-1-(3,5-dimethylpyridazin-4-yl)ethoxy]-1H-indazol-3-yl]pyrimidin-2-yl]-6λ^6-thia-2-azaspiro[3.4]octane 6,6-dioxide]",Ba/F3 FGFR1/FGFR3 Selectivity,[1],3
same,IC50,[1],> 300 nM
same,IC50,[2],> 300 nM
same,Kd,[3],20 to 100 nM
same,Kd,[4],20 to 100 nM
same,Kd,[5],1 to 20 nM
same,Kd,[6],1 to 20 nM
same,Kd,[7],1 to 20 nM
"COC(=O)N1CC2(C1)CN(c1ncc(-c3n[nH]c4ccc(O[C@H](C)c5c(C)cnnc5C)cc34)cn1)C2 [Example 143, methyl 6-[5-[5-[(1R)-1-(3,5-dimethylpyridazin-4-yl)ethoxy]-1H-indazol-3-yl]pyrimidin-2-yl]-2,6-diazaspiro[3.3]heptane-2-carboxylate]",Ba/F3 FGFR1/FGFR3 Selectivity,[1],14
same,IC50,[1],100 to 300 nM
same,IC50,[2],> 300 nM
same,Kd,[3],100 to 300 nM
same,Kd,[4],20 to 100 nM
same,Kd,[5],1 to 20 nM
same,Kd,[6],1 to 20 nM
same,Kd,[7],1 to 20 nM
"Cc1cnnc(C)c1[C@@H](C)Oc1ccc2[nH]nc(-c3ccc(N4CC5(CCS(=O)(=O)C5)C4)nc3)c2c1 [Example 144, 2-[5-[5-[(1R)-1-(3,5-dimethylpyridazin-4-yl)ethoxy]-1H-indazol-3-yl]-2-pyridyl]-6λ^6-thia-2-azaspiro[3.4]octane 6,6-dioxide]",Ba/F3 FGFR1/FGFR3 Selectivity,[1],33
same,IC50,[1],20 to 100 nM
same,IC50,[2],> 300 nM
same,Kd,[3],1 to 20 nM
same,Kd,[4],1 to 20 nM
same,Kd,[5],1 to 20 nM
same,Kd,[6],1 to 20 nM
same,Kd,[7],1 to 20 nM
"Cc1cnnc(C)c1[C@H](C)Oc1ccc2[nH]nc(-c3ccc(N4CC5(CCS(=O)(=O)C5)C4)nc3)c2c1 [Example 145, 2-[5-[5-[(1S)-1-(3,5-dimethylpyridazin-4-yl)ethoxy]-1H-indazol-3-yl]-2-pyridyl]-6λ^6-thia-2-azaspiro[3.4]octane 6,6-dioxide]",Ba/F3 FGFR1/FGFR3 Selectivity,[1],2
same,IC50,[1],> 300 nM
same,IC50,[2],> 300 nM
same,Kd,[3],> 300 nM
same,Kd,[4],20 to 100 nM
same,Kd,[5],20 to 100 nM
same,Kd,[6],1 to 20 nM
same,Kd,[7],100 to 300 nM
"CCOC(=O)N1CC2(C1)CN(c1ncc(-c3n[nH]c4ccc(O[C@H](C)c5c(C)cnnc5C)cc34)cn1)C2 [Example 146, ethyl 6-[5-[5-[(1R)-1-(3,5-dimethylpyridazin-4-yl)ethoxy]-1H-indazol-3-yl]pyrimidin-2-yl]-2,6-diazaspiro[3.3]heptane-2-carboxylate]",Ba/F3 FGFR1/FGFR3 Selectivity,[1],15
same,IC50,[1],100 to 300 nM
same,IC50,[2],> 300 nM
same,Kd,[3],100 to 300 nM
same,Kd,[4],20 to 100 nM
same,Kd,[5],1 to 20 nM
same,Kd,[6],1 to 20 nM
same,Kd,[7],1 to 20 nM
"Cc1cnnc(C)c1[C@@H](C)Oc1ccc2[nH]nc(-c3ccc(N4CC5(C4)CN(S(C)(=O)=O)C5)nc3)c2c1 [Example 148, 5-[(1R)-1-(3,5-dimethylpyridazin-4-yl)ethoxy]-3-[6-(2-methylsulfonyl-2,6-diazaspiro[3.3]heptan-6-yl)-3-pyridyl]-1H-indazole]",Ba/F3 FGFR1/FGFR3 Selectivity,[1],16
same,IC50,[1],20 to 100 nM
same,IC50,[2],> 300 nM
same,Kd,[3],1 to 20 nM
same,Kd,[4],1 to 20 nM
same,Kd,[5],1 to 20 nM
same,Kd,[6],1 to 20 nM
same,Kd,[7],1 to 20 nM
"C[C@H](Oc1ccc2[nH]nc(-c3ccc(N4CC5(C4)CN(S(C)(=O)=O)C5)nc3)c2c1)c1c(Cl)cncc1Cl [Example 160, 5-[(1S)-1-(3,5-dichloro-4-pyridyl)ethoxy]-3-[6-(2-methylsulfonyl-2,6-diazaspiro[3.3]heptan-6-yl)-3-pyridyl]-1H-indazole]",Ba/F3 FGFR1/FGFR3 Selectivity,[1],17
same,IC50,[1],100 to 300 nM
same,IC50,[2],> 300 nM
same,Kd,[3],> 300 nM
same,Kd,[4],100 to 300 nM
same,Kd,[5],20 to 100 nM
same,Kd,[6],1 to 20 nM
same,Kd,[7],100 to 300 nM
"C[C@@H](Oc1ccc2[nH]nc(-c3ccc(N4CC5(CCCN(S(C)(=O)=O)C5)C4)nc3)c2c1)c1c(Cl)cncc1Cl [Example 162, 5-[(1R)-1-(3,5-dichloro-4-pyridyl)ethoxy]-3-[6-(8-methylsulfonyl-2,8-diazaspiro[3.5]nonan-2-yl)-3-pyridyl]-1H-indazole]",Ba/F3 FGFR1/FGFR3 Selectivity,[1],12
same,IC50,[1],1 to 20 nM
same,IC50,[2],100 to 300 nM
same,Kd,[3],20 to 100 nM
same,Kd,[4],1 to 20 nM
same,Kd,[5],1 to 20 nM
same,Kd,[6],1 to 20 nM
same,Kd,[7],1 to 20 nM
